Assay results taken from patent US10857128B2, “Methods and compositions for treating inflammatory diseases” (Helmholtz Zentrum München Deutsches Forschungszentrum für …, priority 2017, dated 2020).

Test system: gut microbiota
Test: Gut microbial diversity by 16S rRNA barcoding of caecum samples
Format: in vivo, Balb/c mice
Method: Bacterial 16S rRNA gene amplification and diversity analysis. Diversity analysis of 16S rRNA genes was performed by amplicon sequencing. In the first PCR reaction, bacterial genomic DNA was subjected to 16S rRNA gene amplifications using the primer S-D-Bact-0785-a-S-18 [5′-GGMTTAGATACCCBDGTA-3′] (SEQ ID NO: 1) and S-*-Univ-1100-a-A-15 [5′-[…]-3′] (SEQ ID NO: 2) as already mentioned. The reaction mixture of 25 μL in total was composed of 5 ng×μL-1 template DNA, 10 μM of each primer, 10 mM dNTPs (Fermentas, Vilnius, Lithuania), 5% of dimethyl sulfoxide (Sigma-Aldrich, St. Louis, USA), 5 U×μL-1 of FastStart High Fidelity Polymerase (Roche Diagnostics, Mannheim, Germany), 10× FastStart Buffer, and nuclease-free water (Life Technologies, Carlsbad, Calif., USA). The PCR started with an initialization at 95° C. for 5 min, followed by 28 cycles of denaturation at 94° C. for 45 sec, annealing at 44° C. for 45 sec, and elongation at 72° C. for 45 sec. A final elongation step at 72° C. for 5 min completed the PCR reaction. To minimize contamination with primer dimers, generated fragments were cut out of the gel after standard agarose gel electrophoresis and purified with the NucleoSpin Gel and PCR Clean-up Kit (Macherey-Nagel, Düren, Germany).
During the second PCR, Illumina sequencing adapters as well as dual indices were attached to the purified amplicons using the Nextera XT Index Kit (Illumina, San Diego, Calif., USA). The reaction volume was 50 μL in total and contained 5 μL of genomic DNA, 5 μL of each Nextera XT Index Primer, 25 μl 2× KAPA HiFi HotStart ReadyMix (Kapa Biosystems, Wilmington, Mass., USA), and 10 μL of nuclease-free water (Life Technologies, Carlsbad, Calif., USA). The PCR reaction was performed according to the following thermal profile: 95° C. for 3 min, followed by 8 cycles of 95° C. for 30 sec, 55° C. for 30 sec, 72° C. for 30 sec, and finalized by 72° C. for 5 min. The PCR products were cleaned up with the Agencourt AMPure XP system (Beckman Coulter, Brea, Calif., USA), DNA was quantified and the DNA quality was controlled using the 2100 Bioanalyzer Instrument (Agilent Technologies, Santa Clara, Calif., USA), and sequenced with the MiSeq instrument (Illumina, San Diego, Calif., USA).
For testing prevention of AAI, mice received 50 mM D-tryptophan starting at least three days before the first sensitization until sacrificing on day 25. For microbiome analyses, the caecum was cut off and immediately stored at −80° C. until further processing.
Microbial Diversity. Bacterial diversity was assessed by molecular barcoding of 16S rRNA genes in caecum samples of six animals per group. To this end, DNA was directly extracted from the caecum using a kit based protocol (PowerSoil DNA Isolation Kit, MO BIO Laboratories, Carlsbad, Calif., USA). 315 bp fragments were amplified within the variable region V5 and V6 of the 16S rRNA gene using S-D-Bact-0785-a-S-18[5′-GGMTTAGATACCCBDGTA-3′] (SEQ ID NO: 1) and S-*-Univ-1100-a-A-15 [5′-[…]-3′] (SEQ ID NO: 2) as primers (Klindworth et al., Nucleic Acids Res. 2013 Jan. 7; 41(1):el). Sequencing of amplicons was performed on the Illumina MiSeq platform (Illumina, San Diego, Calif., USA) using paired end technology (see section “Bacterial 16S rRNA gene amplification and diversity analysis” herein). Sequences are deposited in NCBI accession number PRJNA304109.
Reads were analyzed with the software package QIIME. Operational taxonomic units (OTUs) were picked within the 13_8 version of the Greengenes reference database (McDonald et al., ISME J. 2012 March; 6(3):610-8) at a similarity level of 95% sequence identity. Sequences were subsampled to 15000 reads per sample, which reflects the number of reads obtained in the sample with the lowest number of reads after quality control. This number was still sufficient to reach a plateau when collectors' curves were calculated on the basis of OTU95. […]

## N[C@H](Cc1c[nH]c2ccccc12)C(=O)O [D-tryptophan]
AAI mice
  impact on microbial community composition: significant
AAI mice with D-Trp
  abundance of Ruminococcaceae: 8.9%
AAI mice, 50 mM in drinking water
  bacterial diversity (alpha-diversity) of AAI mice: increased
D-Trp groups
  abundance of Rikenellaceae: 1.1-2.0%
D-tryptophan treated AAI mice
  abundance of Lachnospiraceae: 20.6%
D-tryptophan treated mice without AAI
  abundance of Lachnospiraceae: 27.5%
Both groups of supplemented animals
  relative abundance of Odoribacteraceae: 3.9%
mouse, in vivo
  members of the S24-7 family: neither affected
